Results on 1 compound are retold here after patent publication US8772309B2, “Pharmaceutical formulation of apomorphine for buccal administration” (Amarin Pharmaceuticals Ireland Limited, priority 2005, dated 2014).

Data set [1] has as its system "on-off" fluctuations in Parkinson's disease. Conditions: sublingual administration, patients responsive to subcutaneous apomorphine; cited from earlier work.
The nature of data set [2]: Ionisation of apomorphine (pKa, un-ionised proportion against pH). It counts as physicochemical. An excerpt: For optimal buccal absorption the apomorphine used should ideally be un-ionised at physiological pH.
If the pH of the product is adjusted to about 8.0, approximately 10% of the apomorphine becomes un-ionised and thus available for absorption. The pH-dependent degree of ionisation of the drug is maintained by a dynamic equilibrium. As un-ionised drug is removed by absorption, more ionised drug becomes un-ionised in order to restore the equilibrium. As a result there is always a sufficient amount of un-ionised drug generated that can be absorbed rapidly.

Take `CN1CCc2cccc3c2[C@H]1Cc1ccc(O)c(O)c1-3` [apomorphine]: the “Mean time to onset of effect” value in data set [1] is reported as “approximately 30 minutes”. Besides, the “Proportion of apomorphine un-ionised” value in data set [2] (pH 3.5) is “negligible”; in data set [2] (pH adjusted to about 8.0) it was “approximately 10%”.
